Experiments:
testosterone, LH = details: cited from earlier work
free testosterone = assay: Human clinical trial: free testosterone concentrations in healthy male volunteers; format: in vivo
Description: Key Inclusion Criteria: Male, aged 65 years or above showing no clinically significant abnormalities in routine haematological and biochemical tests and having endocrinology and prostate specific antigen (PSA) results within normal limits. Key Exclusion Criteria: Previous inclusion in a clinical trial using CASODEXTM; concurrent treatment with any drugs with the exception of paracetomol; history or presence of any testicular abnormality; history or presence of gastrointestinal, hepatic or renal disease, or other condition known to interfere with the absorption, distribution, metabolism or excretion of drugs; a clinically significant illness within 2 weeks of trial commencement; definite or suspected personal or family history of significant adverse drug reactions or any hypersensitivity to CASODEXTM or […]; treatment within the previous 3 months with any drugs known to have a well-defined potential for hepatotoxicity or hepatic interaction. Dosage: The CASODEXTM was administered daily at a dose of 150 mg and the […] was administered daily at a dose of 20 mg. All treatments were in tablet form and taken once daily. Daily treatment with CASODEXTM plus […] was for 6 weeks, this period being selected as the minimum time to attain steady-state plasma concentrations for the drugs. Another set of volunteers were administered CASODEXTM alone at a daily dose of 150 mg for 4 weeks. All treatments were in tablet form and taken once daily. Key Assessment: Free testosterone concentrations were measured during the course of the trial.

testosterone = details: cited from earlier work

SMILES	Effect on mean serum testosterone, oestradiol, LH levels, LH pulse frequency and amplitude (testosterone, LH; 13 normal men, tamoxifen for 6 weeks (Spijkstra et al 1988))	Effect on serum testosterone levels (testosterone, LH; tamoxifen administration to men (Lewis-Jones et al 1987))	Effect on testosterone and LH (testosterone, LH; tamoxifen intake in adult men (Comhaire et al 1995))	Effect on basal LH, FSH and testosterone levels (testosterone, LH; three months' treatment, normogonadotrophic oligozoospermic men (van Bergeijk et al 1986))	Free testosterone, ratio to Day 1 (free testosterone; Day 29, CASODEX alone 150 mg daily for 4 weeks)	Free testosterone concentration, gmean (free testosterone; Day 29, CASODEX alone 150 mg daily for 4 weeks, n=7, pre-dose Day 1 baseline gmean 0.048) [nmol/L]	Increase in mean free testosterone concentration (free testosterone; by the end of the treatment period (4 weeks), CASODEX alone 150 mg daily) [%]	Increase in mean free testosterone concentration (testosterone; after 24 weeks of daily 150 mg CASODEX alone, prostate cancer (Verhelst et al 1994)) [%]	Change of basal level of total testosterone (testosterone; single agent therapy in humans (Blackledge et al 1996))
CC/C(=C(\c1ccccc1)c1ccc(OCCN(C)C)cc1)c1ccccc1 [tamoxifen, (Z)-2-[p-(1,2-diphenylbut-1-enyl)phenoxy]ethyldimethylamine]	An increase	marked elevation	increase testosterone and LH	stimulated basal LH, FSH and testosterone levels					
CC(O)(CS(=O)(=O)c1ccc(F)cc1)C(=O)Nc1ccc(C#N)c(C(F)(F)F)c1 (stereo not drawn) [CASODEX™, 4′-cyano-α′,α′,α′-trifluoro-3-(4-fluorophenylsulphonyl)-2-hydroxy-2-methylpropiono-m-toluidide]					1.58	0.076	58	57	approximate doubling

From US20030134899A1, “Pharmaceutical combination of bicalutamide and tamoxifen for providing an anti-androgenic effect and an anti-oestrogenic effect” (priority 2002, published 2003)
